“And” between values parts separate entries of the source, which are not always exact repeats. Equal entries are not always repeated. Toxic doses and inconclusive results are not listed.

The assay deals with CD2F1 mice, L1210 leukemia ip, survival T/C. As to the kind of experiment: NCI In Vivo Anticancer Drug Screen. Data for tumor model L1210 Leukemia (intraperitoneal) in CD2F1 (CDF1) mice. To be noted: higher = longer survival. Put shortly: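 Ratio T/C, where T is the treated-group value and C the vehicle-dosed control value, from mice implanted with a transplantable tumor.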
Setting [1] is: endpoint: mean survival time, dose: 100.0 mg/kg/injection, schedule: Q01DX001 (ip), vehicle: saline.
Where [2] appears, read: endpoint: mean survival time, dose: 12.5 mg/kg/injection, schedule: Q01DX009 (ip), vehicle: other.
Where [3] appears, read: endpoint: mean survival time, dose: 25.0 mg/kg/injection, schedule: Q01DX009 (ip), vehicle: other.
The mark [4] stands for this setting: endpoint: mean survival time, dose: 50.0 mg/kg/injection, schedule: Q01DX009 (ip), vehicle: other.
The mark [5] stands for this setting: endpoint: mean survival time, dose: 100.0 mg/kg/injection, schedule: Q04DX003 (ip), vehicle: saline with Tween-80.
Setting [6] is: endpoint: mean survival time, dose: 200.0 mg/kg/injection, schedule: Q04DX003 (ip), vehicle: saline with Tween-80.
The mark [7] stands for this setting: endpoint: mean survival time, dose: 400.0 mg/kg/injection, schedule: Q04DX003 (ip), vehicle: saline with Tween-80.
Setting [8] is: endpoint: mean survival time, dose: 100.0 mg/kg/injection, schedule: Q01DX001 (ip), vehicle: saline with Tween-80.
Setting [9] is: endpoint: mean survival time, dose: 200.0 mg/kg/injection, schedule: Q01DX001 (ip), vehicle: saline with Tween-80.
Where [10] appears, read: endpoint: mean survival time, dose: 400.0 mg/kg/injection, schedule: Q01DX001 (ip), vehicle: saline with Tween-80.
[11] abbreviates: endpoint: mean survival time, dose: 100.0 mg/kg/injection, schedule: Q01DX009 (ip), vehicle: saline with Tween-80.
[12] abbreviates: endpoint: mean survival time, dose: 200.0 mg/kg/injection, schedule: Q01DX009 (ip), vehicle: saline with Tween-80.
Setting [13] is: endpoint: mean survival time, dose: 400.0 mg/kg/injection, schedule: Q01DX009 (ip), vehicle: saline with Tween-80.

Consider `CCCCN(C)CCNc1cc(C)nc(/N=C(\N)Nc2ccc(Cl)c(Cl)c2)n1`, for which the T/C (endpoint: mean survival time, dose: 75.0 mg/kg/injection, schedule: Q01DX001 (ip), vehicle: other) is 97 % of control.
`O=NN(CCF)C(=O)NC1C(O)CCCC1O` (stereo unspecified): the T/C reads like this: (endpoint: median survival time, dose: 1.25 mg/kg/injection, schedule: Q01DX001 (ip), vehicle: saline) 120 % of control; (endpoint: median survival time, dose: 2.5 mg/kg/injection, schedule: Q01DX001 (ip), vehicle: saline) 116 % of control; (endpoint: median survival time, dose: 5.0 mg/kg/injection, schedule: Q01DX001 (ip), vehicle: saline) 160 % of control; (endpoint: median survival time, dose: 5.0 mg/kg/injection, schedule: Q04DX002 (ip), vehicle: saline) 178 % of control; (endpoint: median survival time, dose: 10.0 mg/kg/injection, schedule: Q01DX001 (ip), vehicle: saline) 168 % of control; (endpoint: median survival time, dose: 10.0 mg/kg/injection, schedule: Q04DX002 (ip), vehicle: saline) 231 % of control and 232 % of control. The T/C is 337 % of control (endpoint: median survival time, dose: 20.0 mg/kg/injection, schedule: Q01DX001 (ip), vehicle: saline); 361 % of control and 365 % of control (endpoint: median survival time, dose: 20.0 mg/kg/injection, schedule: Q04DX002 (ip), vehicle: saline); 337 % of control (endpoint: median survival time, dose: 40.0 mg/kg/injection, schedule: Q01DX001 (ip), vehicle: saline); 182 % of control and 361 % of control (endpoint: median survival time, dose: 40.0 mg/kg/injection, schedule: Q04DX002 (ip), vehicle: saline).
`O=C(O)O.O=C(O)O.O=C(O)O.[Co]`: the T/C is 102 % of control under setting [1] and 97 % of control (endpoint: mean survival time, dose: 400.0 mg/kg/injection, schedule: Q04DX003 (ip), vehicle: saline).
Take `O=C1c2ccccc2C(=O)c2c(O)c3c(c(O)c21)CCC(O)C3` (stereo unspecified): the T/C under setting [2] is 102 % of control; the T/C under setting [3] was 107 % of control; the T/C under setting [4] is 96 % of control; the T/C (endpoint: mean survival time, dose: 100.0 mg/kg/injection, schedule: Q01DX009 (ip), vehicle: other) was 91 % of control; the T/C (endpoint: mean survival time, dose: 200.0 mg/kg/injection, schedule: Q01DX009 (ip), vehicle: other) is 93 % of control.
In the case of `N#CCCC1(CCC#N)c2ccccc2-c2ccccc21`, the T/C is, setting by setting: under setting [5], 95 % of control; under setting [6], 100 % of control; under setting [7], 105 % of control.
`S=c1cc[nH]c2ccccc12`: the T/C was 104 % of control under setting [2], 102 % of control under setting [3] and 104 % of control under setting [4].
For `CCOC(=O)c1c[nH]c([O-])c1[N+]#N`, the T/C was 94 % of control under setting [8]; 100 % of control (endpoint: mean survival time, dose: 100.0 mg/kg/injection, schedule: Q04DX002 (ip), vehicle: saline with Tween-80); 96 % of control under setting [9]; 107 % of control (endpoint: mean survival time, dose: 200.0 mg/kg/injection, schedule: Q04DX002 (ip), vehicle: saline with Tween-80); 91 % of control under setting [10]; 103 % of control (endpoint: mean survival time, dose: 400.0 mg/kg/injection, schedule: Q04DX002 (ip), vehicle: saline with Tween-80).
Consider `CC1OC(OCc2ccc(-c3ccccc3)cc2)CC(N)C1O` (stereo unspecified), for which the T/C was 94 % of control (endpoint: mean survival time, dose: 0.78 mg/kg/injection, schedule: Q01DX001 (ip), vehicle: water); 97 % of control (endpoint: mean survival time, dose: 1.56 mg/kg/injection, schedule: Q01DX001 (ip), vehicle: water); 95 % of control (endpoint: mean survival time, dose: 3.13 mg/kg/injection, schedule: Q01DX001 (ip), vehicle: water); 106 % of control (endpoint: mean survival time, dose: 6.25 mg/kg/injection, schedule: Q01DX001 (ip), vehicle: water); 97 % of control (endpoint: mean survival time, dose: 12.5 mg/kg/injection, schedule: Q01DX001 (ip), vehicle: water); 105 % of control (endpoint: mean survival time, dose: 25.0 mg/kg/injection, schedule: Q01DX001 (ip), vehicle: water). Further, the T/C was 106 % of control (endpoint: median survival time, dose: 1.56 mg/kg/injection, schedule: Q04DX003 (ip), vehicle: water); 98 % of control (endpoint: median survival time, dose: 3.13 mg/kg/injection, schedule: Q04DX003 (ip), vehicle: water); 109 % of control (endpoint: median survival time, dose: 6.25 mg/kg/injection, schedule: Q04DX003 (ip), vehicle: water); 100 % of control (endpoint: median survival time, dose: 12.5 mg/kg/injection, schedule: Q04DX003 (ip), vehicle: water); 106 % of control (endpoint: median survival time, dose: 25.0 mg/kg/injection, schedule: Q04DX003 (ip), vehicle: water).
In the case of `N#CC(O)c1ccc([N+](=O)[O-])cc1` (stereo unspecified), the T/C is 101 % of control (endpoint: mean survival time, dose: 1.25 mg/kg/injection, schedule: Q04DX002 (ip), vehicle: saline with Tween-80); 101 % of control (endpoint: mean survival time, dose: 2.5 mg/kg/injection, schedule: Q04DX002 (ip), vehicle: saline with Tween-80); 101 % of control (endpoint: mean survival time, dose: 5.0 mg/kg/injection, schedule: Q04DX002 (ip), vehicle: saline with Tween-80); 97 % of control (endpoint: mean survival time, dose: 10.0 mg/kg/injection, schedule: Q04DX002 (ip), vehicle: saline with Tween-80).
As to `CN=C(N)N/N=C(\c1ccccc1)c1ccc(Br)cc1`, the T/C runs as follows: (endpoint: median survival time, dose: 3.12 mg/kg/injection, schedule: Q01DX009 (ip), vehicle: saline) 100 % of control; (endpoint: median survival time, dose: 6.25 mg/kg/injection, schedule: Q01DX009 (ip), vehicle: saline) 106 % of control; (endpoint: median survival time, dose: 12.5 mg/kg/injection, schedule: Q01DX009 (ip), vehicle: saline) 107 % of control; (endpoint: median survival time, dose: 25.0 mg/kg/injection, schedule: Q01DX009 (ip), vehicle: saline) 121 % of control.
For `CC1(C)C2CC=C(CCCc3ccccc3)C1C2` (stereo unspecified), the T/C reads like this: under setting [5], 98 % of control; under setting [6], 93 % of control.
`CC(=O)Oc1ccc(C2NNC3(O)C(=O)N(C4CCCCC4)CC23)cc1` (stereo unspecified): the T/C was 90 % of control under setting [5], 94 % of control under setting [6] and 98 % of control under setting [7].
In the case of `CCC[CH2][Sn](=[S])[CH2]CCC`, the T/C was 102 % of control (endpoint: mean survival time, dose: 0.39 mg/kg/injection, schedule: Q01DX009 (ip), vehicle: other); 100 % of control (endpoint: mean survival time, dose: 0.78 mg/kg/injection, schedule: Q01DX009 (ip), vehicle: other); 107 % of control (endpoint: mean survival time, dose: 1.56 mg/kg/injection, schedule: Q01DX009 (ip), vehicle: other); 103 % of control (endpoint: mean survival time, dose: 6.25 mg/kg/injection, schedule: Q04DX003 (ip), vehicle: other); 103 % of control (endpoint: mean survival time, dose: 12.5 mg/kg/injection, schedule: Q04DX003 (ip), vehicle: other).
`CC(=O)NCNC(C)=O`: the T/C reads like this: under setting [1], 100 % of control; (endpoint: mean survival time, dose: 200.0 mg/kg/injection, schedule: Q01DX001 (ip), vehicle: saline) 93 % of control; (endpoint: mean survival time, dose: 400.0 mg/kg/injection, schedule: Q01DX001 (ip), vehicle: saline) 100 % of control.
For `O=[N+]([O-])c1ccc(Sc2ccc(Br)cc2)cc1`, the T/C runs as follows: under setting [8], 97 % of control; under setting [9], 106 % of control; under setting [10], 104 % of control.
As to `CC(=O)[O][Hg][c]1ccccc1`, the T/C was 100 % of control (endpoint: mean survival time, dose: 12.5 mg/kg/injection, schedule: Q01DX001 (ip), vehicle: Klucel (hydroxypropylcellulose) (HPC)); 106 % of control (endpoint: mean survival time, dose: 12.5 mg/kg/injection, schedule: Q01DX009 (ip), vehicle: saline with Tween-80); 106 % of control (endpoint: mean survival time, dose: 25.0 mg/kg/injection, schedule: Q01DX001 (ip), vehicle: Klucel (hydroxypropylcellulose) (HPC)); 98 % of control (endpoint: mean survival time, dose: 25.0 mg/kg/injection, schedule: Q01DX009 (ip), vehicle: saline with Tween-80).
In the case of `COC1OC2COc3ccccc3OC2C(N)C1SSC1C(OC)OC2COc3ccccc3OC2C1N` (stereo unspecified), the T/C runs as follows: (endpoint: mean survival time, dose: 75.0 mg/kg/injection, schedule: Q01DX001 (ip), vehicle: saline with Tween-80) 94 % of control; (endpoint: mean survival time, dose: 150.0 mg/kg/injection, schedule: Q01DX001 (ip), vehicle: saline with Tween-80) 95 % of control; (endpoint: mean survival time, dose: 300.0 mg/kg/injection, schedule: Q01DX001 (ip), vehicle: saline with Tween-80) 94 % of control.
Regarding `COc1cc(/C=C/c2ccc3ccccc3n2)cc(OC)c1OC`, the T/C runs as follows: under setting [11], 94 % of control; under setting [5], 104 % of control; under setting [12], 91 % of control; under setting [6], 96 % of control; under setting [13], 89 % of control; under setting [7], 98 % of control.
Regarding `O=P1(O)Cc2ccccc2-c2ccccc21`, the T/C is, setting by setting: under setting [11], 100 % of control; under setting [12], 110 % of control; under setting [13], 98 % of control.

The values are drawn from PubChem BioAssay AID256 (DTP/NCI, 2004).
